In US20090143419A1, “METHODS AND COMPOSITIONS FOR CONTROLLING ECTOPARASITES” (HATCHTECH PTY LTD, priority 2005, published 2009):

Key:
[1] = test system: lice eggs; assay: Time-course in vitro lice egg hatching assay; type: in vivo, clothing lice (Pediculus humanus humanus); settings: for % Inhibition of lice egg hatching (maximum over the time-course): 10 mM
[2] = test system: Plutella xylostella eggs (Waite strain); assay: Effect of added metal ions (FeSO4) on inhibition of Plutella xylostella egg hatching; type: in vivo
Protocol: Within 24 hours of collection the following experimental design was chosen. Batches of eggs were exposed to either 10 mM 6,6′-dimethyl-2,2′-dipyridyl or solvent only (methanol) for 2 seconds. All batches of eggs were allowed to air dry for 20 minutes at room temperature. The eggs were then given a 2 second exposure to FeSO4 at either 10, 5 or 1 mM, air dried and put in the incubator at 24° C. and allowed to hatch over the next 6 days. In addition, a positive control of 10 mM 6,6′-dimethyl-2,2′-dipyridyl was set up in which eggs were exposed to this compound for 2 seconds, air dried and placed in the incubator.
Within 24 hours of collection the following experimental design was chosen. Batches of eggs were exposed to 10 mM 5,5′dimethyl-2,2′-dipyridyl or solvent only (methanol) for 2 seconds. All batches of eggs were allowed to air dry for 20 minutes at room temperature. The eggs were then given a 2 second exposure to FeSO4 at 10, 5 or 1 mM, air dried and put in an incubator at 24° C. and allowed to hatch over the next 6 days. In addition, a positive control of 10 mM, 5,5′-dimethyl-2,2′-dipyridyl was set up in which eggs were exposed to this compound for 2 seconds, air dried and placed in the incubator.

[3] = test system: B. ovis eggs; assay: Egg hatching in Bovicola ovis; type: in vivo; settings: 10 mM, 10 eggs per replicate
Protocol: B. ovis eggs were collected from the wool of sheep that were infested with this parasite. The eggs were collected using forceps and with the aid of a dissecting microscope and placed in 24 well tissue culture plates in duplicate lots of 10 eggs per replicate. The eggs were then exposed to either methanol alone (solvent control) or the test compounds for either 10 minutes or 1 minute or left as untreated controls before being removed from the wells and placed into individual glass vials containing a diet at the base of the tube. The tubes were placed in plastic containers containing a salt solution (to keep humidity constant at 68%) and the containers maintained at a temperature 32° C. The eggs were monitored for hatching over the following 12 days and % hatch inhibition determined in comparison to the controls.

[4] = test system: Plutella xylostella eggs (Waite strain); assay: Egg hatching of Plutella xylostella
Protocol: The egg masses were then placed in a humid box at 25 degrees until egg hatch. Control eggs were exposed to absolute methanol as described above. At day 6 post laying the eggs were assessed from the different treatments and the percentage of egg hatch determined relative to the control as shown in Table 9.
Batches of Plutella eggs that were laid on either fine cloth or parafilm were dipped in a specific inhibitor solution for between 2-10 seconds, the excess solution was drained by blotting with dry tissue paper. The egg masses were then placed in a humid box at 25 degrees until egg hatch. Control eggs were exposed to absolute methanol as described above or not treated. At day 6 post laying the eggs were assessed from the different treatments and the percentage of egg hatch determined relative to the controls as shown in Tables 10 and 11.
Batches of Plutella eggs that were laid on fine cloth were dipped in a specific inhibitor solution for approximately 2 seconds, the excess solution was drained by blotting with dry tissue paper. The egg masses were then placed in a humid box at 25 degrees until egg hatch. Control eggs were exposed to absolute methanol as described above or not treated. At day 6 post laying the eggs were assessed from the different treatments and the percentage of egg hatch determined relative to the control as shown in Table 12.
The egg masses were then placed in a humid box at 25 degrees until egg hatch. Control eggs were exposed to absolute ethanol as described above. On day 6 post laying the eggs were assessed from the different treatments and the percentage of egg hatch determined relative to the control.

[5] = test system: Helicoverpa armigera eggs (Tatura×Toowoomba strains); assay: Egg hatching of Helicoverpa armigera; settings: for % Inhibition: relative to control
Protocol: Several hundred Helicoverpa armigera eggs (Tatura×Toowoomba strains) were collected, that had been laid on fine mesh cloth over a 24 hour period.
Batches of Helicoverpa eggs were exposed to a specific inhibitor solution for between 2-10 seconds the excess solution drained by blotting with dry tissue paper. The egg masses were then placed in a humid box at 25 degrees until egg hatch. Control eggs were exposed to absolute methanol as described above.

[6] = Table 18, 10 mM inhibitor alone, (+ve) control
[7] = Table 18, 10 mM inhibitor followed by 2 second exposure to 1 mM FeSO4
[8] = Table 18, 10 mM inhibitor followed by 2 second exposure to 5 mM FeSO4
[9] = Table 18, 10 mM inhibitor followed by 2 second exposure to 10 mM FeSO4
[10] = Table 18, 10 mM inhibitor followed by 2 second exposure to MEOH
[11] = Table 10, 1 mM, eggs laid on cloth
[12] = Table 10, 1 mM, eggs laid on cloth, relative to controls
[13] = Table 10, 10 mM, eggs laid on cloth
[14] = Table 10, 10 mM, eggs laid on cloth, relative to controls
[15] = Table 11, 1 mM, eggs laid on parafilm
[16] = Table 11, 1 mM, eggs laid on parafilm, relative to controls
[17] = Table 11, 10 mM, eggs laid on parafilm
[18] = Table 11, 10 mM, eggs laid on parafilm, relative to controls
[19] = Table 12, 0.01 mM, cloth, dipped approximately 2 seconds
[20] = Table 12, 0.1 mM, cloth, dipped approximately 2 seconds
[21] = Table 12, 1 mM, cloth, dipped approximately 2 seconds
[22] = Table 12, 10 mM, cloth, dipped approximately 2 seconds
[23] = Table 13, 0.1 mM, cloth, dipped approximately 2 seconds
[24] = Table 13, 1 mM, cloth, dipped approximately 2 seconds
[25] = Table 17, 10 mM inhibitor alone, (+ve) control
[26] = Table 17, 10 mM inhibitor followed by 2 second exposure to 1 mM FeSO4
[27] = Table 17, 10 mM inhibitor followed by 2 second exposure to 5 mM FeSO4
[28] = Table 17, 10 mM inhibitor followed by 2 second exposure to 10 mM FeSO4
[29] = Table 17, 10 mM inhibitor followed by 2 second exposure to MEOH
[30] = Table 9, 0.001 mM, dipped 2-10 seconds, day 6 post laying
[31] = Table 9, 0.01 mM, dipped 2-10 seconds, day 6 post laying
[32] = Table 9, 0.1 mM, dipped 2-10 seconds, day 6 post laying
[33] = Table 9, 1 mM, dipped 2-10 seconds, day 6 post laying
[34] = Table 9, 10 mM, dipped 2-10 seconds, day 6 post laying
[35] = Table 10, 0.01 mM, eggs laid on cloth
[36] = Table 10, 0.1 mM, eggs laid on cloth
[37] = Table 11, 0.01 mM, eggs laid on parafilm
[38] = Table 11, 0.1 mM, eggs laid on parafilm
[39] = Table 14, 1 mM, exposed 2-10 seconds, day 6 post laying
[40] = Table 14, 10 mM, exposed 2-10 seconds, day 6 post laying

Cc1ccc(-c2ccc(C)cn2)nc1 [5,5′-dimethyl-2,2′-dipyridyl]
% Inhibition of lice egg hatching (maximum over the time-course) [1]: 100% | % Inhibition [2, 6]: 100% | Number hatched [2, 6]: 0 | Number unhatched [2, 6]: 38 | Number hatched [2, 7]: 39 | Number unhatched [2, 7]: 0 | % Inhibition ([2]; Table 18, 10 mM inhibitor followed by 2 second exposure to 1 mM FeSO4, relative to the FeSO4 only controls): 0% | Number hatched [2, 8]: 25 | Number unhatched [2, 8]: 0 | % Inhibition ([2]; Table 18, 10 mM inhibitor followed by 2 second exposure to 5 mM FeSO4, relative to the FeSO4 only controls): 0% | Number hatched [2, 9]: 23 | Number unhatched [2, 9]: 2 | % Inhibition ([2]; Table 18, 10 mM inhibitor followed by 2 second exposure to 10 mM FeSO4, relative to the FeSO4 only controls): 8% | Number hatched [2, 10]: 16 | Number unhatched [2, 10]: 19 | Number unhatched ([3]; 1 minute exposure): 10 | Number unhatched ([3]; 10 minute exposure): 10 | Number hatched [4, 11]: 5 | Number unhatched [4, 11]: 22 | % Inhibition [4, 12]: 78% | Number hatched [4, 13]: 0 | Number unhatched [4, 13]: 21 | % Inhibition [4, 14]: 100% | Number hatched [4, 15]: 18 | Number unhatched [4, 15]: 151 | % Inhibition [4, 16]: 88% | Number hatched [4, 17]: 0 | Number unhatched [4, 17]: 142 | % Inhibition [4, 18]: 100% | Number hatched [4, 19]: 37 | Number unhatched [4, 19]: 3 | Number hatched [4, 20]: 22 | Number unhatched [4, 20]: 16 | Number hatched [4, 21]: 1 | Number unhatched [4, 21]: 45 | Number hatched [4, 22]: 0 | Number unhatched [4, 22]: 68 | Number hatched [4, 23]: 32 | Number unhatched [4, 23]: 52 | Number hatched [4, 24]: 2 | Number unhatched [4, 24]: 118 | Number hatched ([5]; Table 15, 10 mM): 0 | Number unhatched ([5]; Table 15, 10 mM): 42

Cc1cccc(-c2cccc(C)n2)n1 [6,6′-dimethyl-2,2′-dipyridyl]
% Inhibition of lice egg hatching (maximum over the time-course) [1]: 100% | H (number of eggs successfully hatched) ([1]; Table 6, […], per replicate): 0 | Ph (number of eggs partly hatched) ([1]; Table 6, […], per replicate): 0 | lice egg hatching ([1]; in vivo): completely inhibited | % Inhibition [2, 25]: 100% | Number hatched [2, 25]: 0 | Number unhatched [2, 25]: 44 | Number hatched [2, 26]: 33 | Number unhatched [2, 26]: 1 | % Inhibition ([2]; Table 17, 10 mM inhibitor followed by 2 second exposure to 1 mM FeSO4, relative to the FeSO4 controls): 3% | Number hatched [2, 27]: 25 | Number unhatched [2, 27]: 0 | % Inhibition ([2]; Table 17, 10 mM inhibitor followed by 2 second exposure to 5 mM FeSO4, relative to the FeSO4 controls): 0% | Number hatched [2, 28]: 12 | Number unhatched [2, 28]: 19 | % Inhibition ([2]; Table 17, 10 mM inhibitor followed by 2 second exposure to 10 mM FeSO4, relative to the FeSO4 controls): 38% | Number hatched [2, 29]: 3 | Number unhatched [2, 29]: 28 | Number unhatched ([3]; 1 minute exposure): 10 | Number unhatched ([3]; 10 minute exposure): 10 | Number hatched [4, 30]: 11 | Number unhatched [4, 30]: 6 | % Inhibition ([4]; Table 9, 0.001 mM, relative to control (100% MeOH)): 0% | Number hatched [4, 31]: 13 | Number unhatched [4, 31]: 7 | % Inhibition ([4]; Table 9, 0.01 mM, relative to control (100% MeOH)): 0% | Number hatched [4, 32]: 23 | Number unhatched [4, 32]: 29 | % Inhibition ([4]; Table 9, 0.1 mM, relative to control (100% MeOH)): 0% | Number hatched [4, 33]: 0 | Number unhatched [4, 33]: 26 | % Inhibition ([4]; Table 9, 1 mM, relative to control (100% MeOH)): 100% | % Inhibition ([4]; Table 9, 1 mM, relative to control (100% MeOH), listed as 6,6′dimethyl-2,2′dipyridyl): strong ovicidal effects | Number hatched [4, 34]: 0 | Number unhatched [4, 34]: 79 | % Inhibition ([4]; Table 9, 10 mM, relative to control (100% MeOH)): 100% | % Inhibition ([4]; Table 9, 10 mM, relative to control (100% MeOH), listed as 6,6′dimethyl-2,2′dipyridyl): strong ovicidal effects | Number hatched [4, 35]: 23 | Number unhatched [4, 35]: 4 | % Inhibition ([4]; Table 10, 0.01 mM, eggs laid on cloth, relative to controls): 12% | Number hatched [4, 36]: 49 | Number unhatched [4, 36]: 49 | % Inhibition ([4]; Table 10, 0.1 mM, eggs laid on cloth, relative to controls): 0% | Number hatched [4, 11]: 0 | Number unhatched [4, 11]: 23 | % Inhibition [4, 12]: 100% | Number hatched [4, 13]: 0 | Number unhatched [4, 13]: 53 | % Inhibition [4, 14]: 100% | Number hatched [4, 37]: 92 | Number unhatched [4, 37]: 4 | % Inhibition ([4]; Table 11, 0.01 mM, eggs laid on parafilm, relative to controls): 0% | Number hatched [4, 38]: 65 | Number unhatched [4, 38]: 70 | % Inhibition ([4]; Table 11, 0.1 mM, eggs laid on parafilm, relative to controls): 7% | Number hatched [4, 15]: 0 | Number unhatched [4, 15]: 63 | % Inhibition [4, 16]: 100% | Number hatched [4, 17]: 0 | % Inhibition [4, 18]: 100% | % Inhibition ([5]; Table 14, 0.001 mM): 0% | % Inhibition ([5]; Table 14, 0.01 mM): 0% | % Inhibition ([5]; Table 14, 0.1 mM): 0% | Number hatched [5, 39]: 4 | Number unhatched [5, 39]: 140 | % Inhibition ([5]; Table 14, 1 mM): 97% | % Inhibition ([5]; Table 14, 1 mM, listed as 6,6′dimethyl-2,2′dipyridyl): significantly inhibit egg hatching | Number hatched [5, 40]: 7 | Number unhatched [5, 40]: 98 | % Inhibition ([5]; Table 14, 10 mM): 94% | % Inhibition ([5]; Table 14, 10 mM, listed as 6,6′dimethyl-2,2′dipyridyl): significantly inhibit egg hatching | Number hatched ([5]; Table 15, 0.1 mM): 70 | Number unhatched ([5]; Table 15, 0.1 mM): 0 | Number hatched ([5]; Table 15, 1 mM): 2 | Number unhatched ([5]; Table 15, 1 mM): 61 | Number hatched ([5]; Table 15, 10 mM): 3 | Number unhatched ([5]; Table 15, 10 mM): 48
